18 compounds from patent publication US20240025922A1, “TETRAHYDROPYRIDO[3,4-d]PYRIMIDINES AS HPK1 INHIBITORS” (Merck Patent GmbH, priority 2022, published 2024) can be followed below.

What is called pIC50 is the negative decadic logarithm of the IC50, by convention in mol/L.

Experiment [1] concerns the target HPK1 (SLP76 phosphorylation at Ser376 in Jurkat and EL-4 cells) (Homo sapiens, UniProt Q92918). It counts as cell-based. The note with it: αCD3/αCD28 Dynabeads stimulated cells, pSLP76 (Ser376) detection; read-out: HPK1 pSLP76 IC50. The procedure, abridged:
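Phospho-SLP76 (Ser376) in lysates measured by AlphaLISA for human Jurkat and by 19 h HTRF for mouse EL-4, giving % inhibition and IC50. Compounds applied 60 min before αCD3/αCD28 bead stimulation at 37 °C, lasting 15 min (Jurkat) or 30 min (EL-4).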

Experiment [2] deals with full-length human HPK1 (MAP4K1) (Homo sapiens (Human), UniProt Q92918). Description: HPK1 Kinase Assay (Biochemical Assay), ADP-Glo. The note with it: GST-HPK1 3.2 nM, 10 μM ATP, MBP substrate, read-out: HPK1 enzymatic IC50. The procedure, abridged: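 ADP-Glo luminescence after a 120-min kinase reaction gave percent inhibition and IC50. The enzyme was Sf21-expressed N-terminal GST full-length human HPK1 at 3.2 nM in HEPES pH 7.5 buffer with MgCl2, DTT, Brij-35 and BSA.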
In general terms: ADP-Glo turns the ADP formed in a reaction into a luminescent signal.

The structures appear in SMILES notation. pIC50: −log10 of the molar value.

Sequence of HPK1 (SLP76 phosphorylation at Ser376 in Jurkat and EL-4 cells) (Q92918 whole entry, looked up): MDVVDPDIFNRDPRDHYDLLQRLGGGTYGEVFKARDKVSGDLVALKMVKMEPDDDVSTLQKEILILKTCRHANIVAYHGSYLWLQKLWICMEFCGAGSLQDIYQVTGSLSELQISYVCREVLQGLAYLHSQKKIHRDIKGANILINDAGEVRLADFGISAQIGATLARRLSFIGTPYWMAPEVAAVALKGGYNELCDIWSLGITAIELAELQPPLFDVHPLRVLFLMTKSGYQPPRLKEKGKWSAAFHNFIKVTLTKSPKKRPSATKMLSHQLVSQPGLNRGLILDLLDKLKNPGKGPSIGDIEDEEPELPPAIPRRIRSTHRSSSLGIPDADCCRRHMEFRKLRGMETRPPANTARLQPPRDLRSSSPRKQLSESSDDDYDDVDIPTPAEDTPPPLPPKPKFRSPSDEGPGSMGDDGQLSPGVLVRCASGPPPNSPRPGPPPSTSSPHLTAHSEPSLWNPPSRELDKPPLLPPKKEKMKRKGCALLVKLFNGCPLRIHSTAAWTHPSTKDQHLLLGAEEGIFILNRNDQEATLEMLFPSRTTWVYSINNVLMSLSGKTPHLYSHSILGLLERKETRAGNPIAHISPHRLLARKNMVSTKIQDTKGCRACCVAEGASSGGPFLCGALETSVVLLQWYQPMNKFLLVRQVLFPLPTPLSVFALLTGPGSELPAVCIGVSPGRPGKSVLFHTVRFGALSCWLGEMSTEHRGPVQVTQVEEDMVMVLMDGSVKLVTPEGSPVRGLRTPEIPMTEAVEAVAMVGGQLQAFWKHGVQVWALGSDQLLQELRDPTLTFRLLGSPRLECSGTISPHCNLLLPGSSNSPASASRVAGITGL
Sequence of full-length human HPK1 (MAP4K1) (Q92918 whole entry): as the sequence (Q92918 whole entry, looked up) above

For `Cc1c(N2CCc3cnc(Nc4ccc(Cn5cncn5)cc4)nc3C2)cnc2c1NCCO2` [Example 126, 7-{8-methyl-1H,2H,3H-pyrido[2,3-b][1,4]oxazin-7-yl}-N-{4-[(1H-1,2,4-triazol-1-yl)methyl]phenyl}-5H,6H,7H,8H-pyrido[3,4-d]pyrimidin-2-amine], the pIC50 in experiment [1] was over 6.30; in experiment [2] it was over 7.00.

Regarding `Cc1c(N2CCc3cnc(Nc4ccc(Cn5ccnc5)cc4)nc3C2)cnc2c1NCCO2` [Example 127, N-{4-[(1H-imidazol-1-yl)methyl]phenyl}-7-{8-methyl-1H,2H,3H-pyrido[2,3-b][1,4]oxazin-7-yl}-5H,6H,7H,8H-pyrido[3,4-d]pyrimidin-2-amine], the pIC50 in experiment [1] was over 6.30; in experiment [2], over 7.00.

As for `Cc1c(N2CCc3cnc(Nc4ccc(CS(N)(=O)=O)cc4)nc3C2)cnc2c1NCCO2` [Example 128, {4-[(7-{8-methyl-1H,2H,3H-pyrido[2,3-b][1,4]oxazin-7-yl}-5H,6H,7H,8H-pyrido[3,4-d]pyrimidin-2-yl)amino]phenyl}methanesulfonamide], the pIC50 in experiment [1] is over 6.30; in experiment [2], over 7.00.

On to `CNC(=O)c1ccc(Nc2ncc3c(n2)CN(c2cnc4c(c2Cl)NCCO4)CC3)cc1C` [Example 130, 4-[(7-{8-chloro-1H,2H,3H-pyrido[2,3-b][1,4]oxazin-7-yl}-5H,6H,7H,8H-pyrido[3,4-d]pyrimidin-2-yl)amino]-N,2-dimethylbenzamide], for which the pIC50 is 6.00 to 6.30 in experiment [1] and over 7.00 in experiment [2].

As to `CS(=O)(=O)Cc1ccc(Nc2ncc3c(n2)CN(c2cnc4c(c2C2CC2)NCCO4)CC3)cc1` [Example 132, 7-{8-cyclopropyl-1H,2H,3H-pyrido[2,3-b][1,4]oxazin-7-yl}-N-[4-(methanesulfonylmethyl)phenyl]-5H,6H,7H,8H-pyrido[3,4-d]pyrimidin-2-amine], the pIC50 in experiment [1] is over 6.30; in experiment [2], over 7.00.

On to `Cc1c(N2CCc3cnc(Nc4ccc(CO)cc4)nc3C2)cnc2c1NCCO2` [Example 133, {4-[(7-{8-methyl-1H,2H,3H-pyrido[2,3-b][1,4]oxazin-7-yl}-5H,6H,7H,8H-pyrido[3,4-d]pyrimidin-2-yl)amino]phenyl}methanol], for which the pIC50 was over 6.30 in experiment [1] and over 7.00 in experiment [2].

Regarding `COCCS(=O)(=O)Cc1ccc(Nc2ncc3c(n2)CN(c2cnc4c(c2C)NCCO4)CC3)cc1` [Example 135, N-{4-[(2-methoxyethanesulfonyl)methyl]phenyl}-7-{8-methyl-1H,2H,3H-pyrido[2,3-b][1,4]oxazin-7-yl}-5H,6H,7H,8H-pyrido[3,4-d]pyrimidin-2-amine], the pIC50 in experiment [1] was over 6.30; in experiment [2] it was over 7.00.

In the case of `Cc1c(N2CCc3cnc(Nc4ccc(CS(C)(=O)=O)cc4)nc3C2)cnc2c(F)c[nH]c12` [Example 138, 7-{3-fluoro-7-methyl-1H-pyrrolo[3,2-b]pyridin-6-yl}-N-[4-(methanesulfonylmethyl)phenyl]-5H,6H,7H,8H-pyrido[3,4-d]pyrimidin-2-amine], the pIC50 in experiment [1] was over 6.30; in experiment [2] it was over 7.00.

Turning to `Cc1c(N2CCc3cnc(Nc4ccc(CS(C)(=O)=O)cc4)nc3C2)cnc2c1NCC1(CC1)O2` [Example 139, N-[4-(methanesulfonylmethyl)phenyl]-7-{8′-methyl-1′,2′-dihydrospiro[cyclopropane-1,3′-pyrido[2,3-b][1,4]oxazin]-7′-yl}-5H,6H,7H,8H-pyrido[3,4-d]pyrimidin-2-amine], the pIC50 in experiment [1] was over 6.30; in experiment [2] it was over 7.00.

As for `Cc1c(N2CCc3cnc(Nc4cc5n(n4)CC(=O)N(CC(F)F)CC5)cc3C2)cnc2c1NCCO2` [Example 140, 6-(2,2-difluoroethyl)-2-[(6-{8-methyl-1H,2H,3H-pyrido[2,3-b][1,4]oxazin-7-yl}-5,6,7,8-tetrahydro-2,6-naphthyridin-3-yl)amino]-4H,5H,6H,7H,8H-pyrazolo[1,5-d][1,4]diazepin-7-one], the results for the pIC50 in experiment [1] and in experiment [2] were over 6.30 and over 7.00, respectively.

Regarding `Cc1c(N2CCc3cnc(Nc4ccc(CS(C)(=O)=O)cc4)nc3C2)cnc2c1NCCC2=O` [Example 142, 7-(2-{[4-(methanesulfonylmethyl)phenyl]amino}-5H,6H,7H,8H-pyrido[3,4-d]pyrimidin-7-yl)-8-methyl-1,2,3,4-tetrahydro-1,5-naphthyridin-4-one], the pIC50 in experiment [1] was under 6.00; in experiment [2], over 7.00.

On to `Cc1c(N2CCc3cnc(Nc4ccc(CS(C)(=O)=O)cc4)nc3C2)cnc2c1NCCC2O` (stereo not drawn) [Example 143, 7-(2-{[4-(methanesulfonylmethyl)phenyl]amino}-5H,6H,7H,8H-pyrido[3,4-d]pyrimidin-7-yl)-8-methyl-1,2,3,4-tetrahydro-1,5-naphthyridin-4-ol], for which the pIC50 in experiment [1] is over 6.30; in experiment [2] it was over 7.00.

Take `Cc1c(N2CCc3cnc(Nc4ccc(Cn5cncn5)cc4)cc3C2)cnc2c1NCCO2` [Example 144, 6-{8-methyl-1H,2H,3H-pyrido[2,3-b][1,4]oxazin-7-yl}-N-{4-[(1H-1,2,4-triazol-1-yl)methyl]phenyl}-5,6,7,8-tetrahydro-2,6-naphthyridin-3-amine]: the pIC50 in experiment [1] is over 6.30; in experiment [2] it was over 7.00.

As for `CCc1c(N2CCc3cnc(Nc4ccc(CS(C)(=O)=O)cc4)nc3C2)cnc2c1NCCO2` [Example 145, 7-{8-ethyl-1H,2H,3H-pyrido[2,3-b][1,4]oxazin-7-yl}-N-[4-(methanesulfonylmethyl)phenyl]-5H,6H,7H,8H-pyrido[3,4-d]pyrimidin-2-amine], the figures for the pIC50 in experiment [1] and in experiment [2] were over 6.30 and over 7.00, respectively.

As to `COCCOCCS(=O)(=O)c1ccc(Nc2ncc3c(n2)CN(c2cnc4c(c2C)NCCO4)CC3)cc1` [Example 147, N-{4-[2-(2-methoxyethoxy)ethanesulfonyl]phenyl}-7-{8-methyl-1H,2H,3H-pyrido[2,3-b][1,4]oxazin-7-yl}-5H,6H,7H,8H-pyrido[3,4-d]pyrimidin-2-amine], the values for the pIC50 in experiment [1] and in experiment [2] were over 6.30 and over 7.00, respectively.

For `Cc1c(N2CCc3cnc(Nc4ccc(CC#N)cc4)nc3C2)cnc2c1NCCO2` [Example 148, 2-{4-[(7-{8-methyl-1H,2H,3H-pyrido[2,3-b][1,4]oxazin-7-yl}-5H,6H,7H,8H-pyrido[3,4-d]pyrimidin-2-yl)amino]phenyl}acetonitrile; formic acid], the pIC50 in experiment [1] is over 6.30; in experiment [2], over 7.00.

For the compound `Cc1c(N2CCc3cnc(Nc4ccc(CS(=O)(=O)N(C)C)cc4)cc3C2)cnc2c1NCCO2` [Example 150, N,N-dimethyl-1-{4-[(6-{8-methyl-1H,2H,3H-pyrido[2,3-b][1,4]oxazin-7-yl}-5,6,7,8-tetrahydro-2,6-naphthyridin-3-yl)amino]phenyl}methanesulfonamide], the figures for the pIC50 in experiment [1] and in experiment [2] were over 6.30 and over 7.00, respectively.

Take `Cc1c(N2CCc3cnc(Nc4ccc(CC(=O)N5CC(F)(F)C5)cc4)nc3C2)cnc2c1NCCO2` [Example 151, 1-(3,3-difluoroazetidin-1-yl)-2-{4-[(7-{8-methyl-1H,2H,3H-pyrido[2,3-b][1,4]oxazin-7-yl}-5H,6H,7H,8H-pyrido[3,4-d]pyrimidin-2-yl)amino]phenyl}ethan-1-one]: the pIC50 is over 6.30 in experiment [1] and over 7.00 in experiment [2].
